Measured values: patent US20060069132A1, “Azolecarboxamide herbicides” (priority 2004, published 2006)

Key:
barnyardgrass [1] = test: Test B pre-/postemergence herbicide test; type: in vivo, Echinochloa crus-galli; conditions: for Plant response rating (0 to 100 scale), Barnyardgrass: 0 is no effect, 100 is complete control, preemergence; for Barnyardgrass plant response rating: scale 0 (no effect) to 100 (complete control)
Outline: (§1)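 Formulation: non-phytotoxic solvent mix with surfactant. Timing: preemergence on seed and postemergence on 2–18 cm plants, applied concurrently. Readout after 13–15 d greenhouse: visual 0–100 control rating against controls.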

wheat = test: Test B postemergence herbicide test; type: in vivo, Triticum aestivum; parameters: key to Wheat plant response rating: 0 = no effect, 100 = complete control
Outline: (§2)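 Postemergence plants were sprayed with formulated test chemicals at 2 to 18 cm height (1- to 4-leaf stage); paddy species were grown to the 2-leaf stage. After 13 to 15 days in a greenhouse, injury was rated visually against untreated controls on a 0–100 scale (0 = no effect, 100 = complete control).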

Surinam grass = test: Test B pre-/postemergence herbicide test; type: in vivo, Urochloa decumbens; conditions: for Plant response rating (0 to 100 scale), Surinam Grass: 0 is no effect, 100 is complete control, preemergence; for Surinam Grass plant response rating: scale 0 (no effect) to 100 (complete control)
Outline: (§3)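 Visual rating, 0 (no effect) to 100 (complete control), versus untreated controls after 13–15 d in greenhouse. Pre- and postemergence applications (postemergence plants 2–18 cm, 1–4 leaves); flooded paddy arm at 2-leaf stage. Compounds in non-phytotoxic solvent plus surfactant.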

ducksalad = test: Test B flooded paddy test; type: in vivo, Heteranthera limosa; conditions: 1000 g ai/ha, scale 0 to 100 (0 no effect, 100 complete control)
Outline: (§4)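 Scale 0–100: zero equals no visible effect, 100 complete control, judged by eye relative to controls. Timing: 13 to 15 days in greenhouse post-treatment. Growth stage at spraying: two leaves (paddy) or one to four leaves, 2–18 cm (postemergence).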

giant foxtail = test: Test B pre-/postemergence herbicide test; type: in vivo, Setaria faberi; conditions: for Plant response rating (0 to 100 scale), Foxtail, Giant: 0 is no effect, 100 is complete control, preemergence; for Foxtail, Giant plant response rating: scale 0 (no effect) to 100 (complete control)
Outline: as §3

pigweed = test: Test B pre-/postemergence herbicide test; type: in vivo, Amaranthus retroflexus; conditions: for Plant response rating (0 to 100 scale), Pigweed: 0 is no effect, 100 is complete control, preemergence; for Pigweed plant response rating: scale 0 (no effect) to 100 (complete control)
Outline: as §3

lambsquarters = test: Test B pre-/postemergence herbicide test; type: in vivo, Chenopodium album; conditions: for Plant response rating (0 to 100 scale), Lambsquarters: 0 is no effect, 100 is complete control, preemergence; for Lambsquarters plant response rating: scale 0 (no effect) to 100 (complete control)
Outline: as §3

corn = test: Test B pre-/postemergence herbicide test; type: in vivo, Zea mays; conditions: for Plant response rating (0 to 100 scale), Corn: 0 is no effect, 100 is complete control, preemergence; for Corn plant response rating: scale 0 (no effect) to 100 (complete control)
Outline: as §3

barnyardgrass [2] = test: Test B flooded paddy test; type: in vivo, Echinochloa crus-galli; conditions: 1000 g ai/ha, scale 0 to 100 (0 no effect, 100 complete control)
Outline: as §4

rice = test: Test B flooded paddy test; type: in vivo, Oryza sativa; conditions: 1000 g ai/ha, scale 0 to 100 (0 no effect, 100 complete control)
Outline: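 Read-out: visual comparison with controls, scored 0 to 100, where 100 means complete control and 0 no effect. Formulated chemicals were applied postemergence to plants 2–18 cm tall (1- to 4-leaf), or to flooded-paddy plants at the 2-leaf stage, then held 13 to 15 days under glass.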

[3] = tested on: small flower umbrella sedge; test: Test B flooded paddy test; type: in vivo, Cyperus difformis; conditions: 1000 g ai/ha, scale 0 to 100 (0 no effect, 100 complete control)
Outline: as §4

wild oat = test: Test B postemergence herbicide test; type: in vivo, Avena fatua; conditions: scale 0 (no effect) to 100 (complete control)
Outline: as §2

velvetleaf = test: Test B pre-/postemergence herbicide test; type: in vivo, Abutilon theophrasti; conditions: for Plant response rating (0 to 100 scale), Velvetleaf: 0 is no effect, 100 is complete control, preemergence; for Velvetleaf plant response rating: scale 0 (no effect) to 100 (complete control)
Outline: as §3

large crabgrass = test: Test B pre-/postemergence herbicide test; type: in vivo, Digitaria sanguinalis; conditions: for Plant response rating (0 to 100 scale), Crabgrass, Large: 0 is no effect, 100 is complete control, preemergence; for Crabgrass, Large plant response rating: scale 0 (no effect) to 100 (complete control)
Outline: as §3

cocklebur = test: Test B pre-/postemergence herbicide test; type: in vivo, Xanthium strumarium; conditions: for Plant response rating (0 to 100 scale), Cocklebur: 0 is no effect, 100 is complete control, preemergence; for Cocklebur plant response rating: scale 0 (no effect) to 100 (complete control)
Outline: as §1

morningglory = test: Test B pre-/postemergence herbicide test; type: in vivo, Ipomoea coccinea; conditions: for Plant response rating (0 to 100 scale), Morningglory: 0 is no effect, 100 is complete control, preemergence; for Morningglory plant response rating: scale 0 (no effect) to 100 (complete control)
Outline: as §1

blackgrass = test: Test B postemergence herbicide test; type: in vivo, Alopecurus myosuroides; conditions: scale 0 (no effect) to 100 (complete control)
Outline: as §4

[4] = 125 g ai/ha, visual rating, postemergence
[5] = 125 g ai/ha, visual rating, scale 0 (no effect) to 100 (complete control), postemergence
[6] = 500 g ai/ha, scale 0 to 100, 0 no effect, 100 complete control, preemergence
[7] = Postemergence, 500 g ai/ha, scale 0 (no effect) to 100 (complete control)

CCNC(=O)c1ccc(F)c(NC(=O)c2nn(C(C)C)nc2C)c1 [Compound 401]
0: Plant response rating (0 to 100 scale), Barnyardgrass (barnyardgrass [1]; 125 g ai/ha) | Barnyardgrass plant response rating (barnyardgrass [1]; [4]) | Barnyardgrass plant response rating (barnyardgrass [1]; Postemergence, 500 g ai/ha) | Wheat plant response rating (wheat; [5]) | Wheat plant response rating (wheat; [6]) | Wheat plant response rating (wheat; [7]) | Plant response rating (0 to 100 scale), Surinam Grass (Surinam grass; 125 g ai/ha) | Surinam Grass plant response rating (Surinam grass; [4]) | Surinam Grass plant response rating (Surinam grass; Postemergence, 500 g ai/ha) | Ducksalad plant response rating (ducksalad) | Plant response rating (0 to 100 scale), Foxtail, Giant (giant foxtail; 125 g ai/ha) | Foxtail, Giant plant response rating (giant foxtail; [4]) | Foxtail, Giant plant response rating (giant foxtail; Postemergence, 500 g ai/ha) | Plant response rating (0 to 100 scale), Pigweed (pigweed; 125 g ai/ha) | Pigweed plant response rating (pigweed; [4]) | Pigweed plant response rating (pigweed; Postemergence, 500 g ai/ha) | Plant response rating (0 to 100 scale), Lambsquarters (lambsquarters; 125 g ai/ha) | Lambsquarters plant response rating (lambsquarters; [4]) | Lambsquarters plant response rating (lambsquarters; Postemergence, 500 g ai/ha) | Plant response rating (0 to 100 scale), Corn (corn; 125 g ai/ha) | Corn plant response rating (corn; [4]) | Corn plant response rating (corn; Postemergence, 500 g ai/ha) | Barnyardgrass plant response rating (barnyardgrass [2]) | Sedge, Umbrella plant response rating [3] | Oat, Wild plant response rating (wild oat; [4]) | Oat, Wild plant response rating (wild oat; Postemergence, 500 g ai/ha) | Plant response rating (0 to 100 scale), Velvetleaf (velvetleaf; 125 g ai/ha) | Velvetleaf plant response rating (velvetleaf; [4]) | Velvetleaf plant response rating (velvetleaf; Postemergence, 500 g ai/ha) | Plant response rating (0 to 100 scale), Crabgrass, Large (large crabgrass; 125 g ai/ha) | Crabgrass, Large plant response rating (large crabgrass; [4]) | Crabgrass, Large plant response rating (large crabgrass; Postemergence, 500 g ai/ha) | Plant response rating (0 to 100 scale), Cocklebur (cocklebur; 125 g ai/ha) | Cocklebur plant response rating (cocklebur; [4]) | Cocklebur plant response rating (cocklebur; Postemergence, 500 g ai/ha) | Plant response rating (0 to 100 scale), Morningglory (morningglory; 125 g ai/ha) | Morningglory plant response rating (morningglory; [4]) | Morningglory plant response rating (morningglory; Postemergence, 500 g ai/ha) | Blackgrass plant response rating (blackgrass; [4]) | Blackgrass plant response rating (blackgrass; Postemergence, 500 g ai/ha)
20: Rice plant response rating (rice)

Cc1nn(C(C)C)nc1C(=O)Nc1cc(C(=O)N2CC=CC2)ccc1F [Compound 402]
30: Lambsquarters plant response rating (lambsquarters; [4]) | Velvetleaf plant response rating (velvetleaf; Postemergence, 500 g ai/ha)
20: Surinam Grass plant response rating (Surinam grass; Postemergence, 500 g ai/ha) | Ducksalad plant response rating (ducksalad) | Foxtail, Giant plant response rating (giant foxtail; Postemergence, 500 g ai/ha) | Velvetleaf plant response rating (velvetleaf; [4])
40: Lambsquarters plant response rating (lambsquarters; Postemergence, 500 g ai/ha)
10: Wheat plant response rating (wheat; [6]) | Pigweed plant response rating (pigweed; Postemergence, 500 g ai/ha) | Barnyardgrass plant response rating (barnyardgrass [2]) | Rice plant response rating (rice) | Crabgrass, Large plant response rating (large crabgrass; Postemergence, 500 g ai/ha)
0: Plant response rating (0 to 100 scale), Barnyardgrass (barnyardgrass [1]; 125 g ai/ha) | Barnyardgrass plant response rating (barnyardgrass [1]; [4]) | Barnyardgrass plant response rating (barnyardgrass [1]; Postemergence, 500 g ai/ha) | Wheat plant response rating (wheat; [5]) | Wheat plant response rating (wheat; [7]) | Plant response rating (0 to 100 scale), Surinam Grass (Surinam grass; 125 g ai/ha) | Surinam Grass plant response rating (Surinam grass; [4]) | Plant response rating (0 to 100 scale), Foxtail, Giant (giant foxtail; 125 g ai/ha) | Foxtail, Giant plant response rating (giant foxtail; [4]) | Plant response rating (0 to 100 scale), Pigweed (pigweed; 125 g ai/ha) | Pigweed plant response rating (pigweed; [4]) | Plant response rating (0 to 100 scale), Lambsquarters (lambsquarters; 125 g ai/ha) | Plant response rating (0 to 100 scale), Corn (corn; 125 g ai/ha) | Corn plant response rating (corn; [4]) | Corn plant response rating (corn; Postemergence, 500 g ai/ha) | Oat, Wild plant response rating (wild oat; [4]) | Oat, Wild plant response rating (wild oat; Postemergence, 500 g ai/ha) | Plant response rating (0 to 100 scale), Velvetleaf (velvetleaf; 125 g ai/ha) | Plant response rating (0 to 100 scale), Crabgrass, Large (large crabgrass; 125 g ai/ha) | Crabgrass, Large plant response rating (large crabgrass; [4]) | Plant response rating (0 to 100 scale), Cocklebur (cocklebur; 125 g ai/ha) | Cocklebur plant response rating (cocklebur; [4]) | Cocklebur plant response rating (cocklebur; Postemergence, 500 g ai/ha) | Plant response rating (0 to 100 scale), Morningglory (morningglory; 125 g ai/ha) | Morningglory plant response rating (morningglory; [4]) | Morningglory plant response rating (morningglory; Postemergence, 500 g ai/ha) | Blackgrass plant response rating (blackgrass; [4]) | Blackgrass plant response rating (blackgrass; Postemergence, 500 g ai/ha)
70: Sedge, Umbrella plant response rating [3]
